Format in all cases: cell-based
The target of experiment [1] is T1, human A3 receptor fused to YFP (A3-YFP) (Homo sapiens, UniProt P0DMS8).
T1 construct: cDNA encoding the full length human A3 receptor; expressed in transfected cells
T1 sequence (P0DMS8 1-318): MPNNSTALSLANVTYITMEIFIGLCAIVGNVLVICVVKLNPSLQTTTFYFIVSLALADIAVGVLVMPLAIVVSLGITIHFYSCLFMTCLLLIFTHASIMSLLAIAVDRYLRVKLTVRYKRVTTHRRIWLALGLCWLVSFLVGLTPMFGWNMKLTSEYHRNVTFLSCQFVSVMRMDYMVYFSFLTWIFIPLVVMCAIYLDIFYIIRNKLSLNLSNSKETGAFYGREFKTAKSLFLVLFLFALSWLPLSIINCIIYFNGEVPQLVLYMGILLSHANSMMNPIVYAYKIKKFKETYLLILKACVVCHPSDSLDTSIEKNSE
The experiment in a line: Automated imaging of receptor internalization (granularity analysis), A3-YFP. As to conditions: for Maximal internalization (%): percentage of internalization with 10 μM NECA in the cell line. An excerpt: Immediately before experimentation, normal growth medium was replaced with serum-free medium. […] Medium was removed and cells were washed once in PBS. […] Images were obtained using an ImageXpress Ultra confocal plate reader (Molecular Devices, Sunnyvale, CA, USA). Four central images were obtained per well using a Plan Fluor 40x NA0.6 extra-long working distance objective. BiFC and YFP images were obtained by excitation with a 488 nm laser line with emission collected through a 525-550 nm band pass filter and H33342 images obtained by excitation with a 405 nm laser line and emission collected through a 447-460 nm band pass filter. Granularity analysis was performed on the resulting images using a granularity algorithm within MetaXpress software (Molecular Devices, Sunnyvale, CA, USA) and intensity above background was set for each individual experiment (Kilpatrick et al., [2010]). Areas of internalized receptors were identified by granularity analysis; granules were defined as having a diameter of between 7 and 15 μm and nuclei as having a diameter of between 6 and 9 μm, resulting in a measurement of the granule count per cell for each image. A basal and FSK control was included in each separate concentration-response CRE-SPAP gene transcription assay and cAMP accumulation assay to allow the responses in each cell line to be expressed as an inhibition of FSK-stimulated SPAP production. […] All data were fitted using non-linear regression in Prism 5 (GraphPad Software, San Diego, CA, USA). […] Statistical significance was determined by Student's unpaired t-test or by one-way ANOVA with Dunnett's post hoc analysis and P < 0.05 was considered statistically significant.

Another experiment addresses T2, A3-YFP (Homo sapiens, UniProt P0DMS8).
T2 construct: cDNA encoding the full length human A3 receptor; expressed in transfected cells
T2 sequence (P0DMS8 1-318): T1 sequence (P0DMS8 1-318)
Briefly: CRE-SPAP gene transcription assay, A3-YFP. Conditions: A3-YFP cells; for agonist-mediated inhibition of SPAP production after PTx pre-incubation: PTx 100 ng·mL−1 overnight, 3 μM FSK; for Emax: read-out: Maximum response (% inhibition of 10 μM FSK), CRE-SPAP assay. The procedure: (§1) One day before analysis, normal growth medium was removed from the cells and replaced with serum-free medium (DMEM/F12 containing 2 mM L-glutamine). Where applicable, PTx (100 ng·mL^−1) was added at this stage. On the day of the assay, the medium was removed and replaced with fresh serum-free medium containing the required concentration of the agonist, and cells were incubated for 1 h at 37°C/5% CO2. After 1 h, the required concentration of forskolin (FSK) was added, and cells were incubated for a further 5 h at 37°C/5% CO2. Following the 5 h incubation, all medium was removed from the cells, 40 μL of fresh serum-free medium was added to each well and cells incubated for a further 1 h at 37°C/5% CO2. The plates were then incubated at 65°C for 30 min, to destroy any endogenous alkaline phosphatases.
(§2) A basal and FSK control was included in each separate concentration-response CRE-SPAP gene transcription assay and cAMP accumulation assay to allow the responses in each cell line to be expressed as an inhibition of FSK-stimulated SPAP production.

For experiment [2], the target named is T3, A3 W243F-YFP (Homo sapiens, UniProt P0DMS8, W243F).
T3 construct: Full length A3 W243F-YFP was excised and subcloned into a native pcDNA3.1 vector; expressed in transfected cells
T3 sequence (P0DMS8 1-318 W243F): T1 sequence (P0DMS8 1-318) with W243F
The experiment in a line: CRE-SPAP gene transcription assay, A3 W243F-YFP. As to conditions: A3 W243F-YFP cells. As for the experimental part:
as §1, with “phosphatases. Plates were cooled to room temperature and 100 μL of 5 mM 4-nitrophenyl phosphate in diethanolamine-containing buffer [10% (v v^−1) diethanolamine, 280 mM NaCl, 500 μM MgCl2, pH 9.85] was added to each well; the plates were then incubated at 37°C for 25 min. The absorbance at 405 nm was measured using a Dynex MRX plate reader (Chelmsford, MA, USA).” for “phosphatases.”
as §2

The target of experiment [3] is T3, A3 W243F-YFP. The experiment in a line: ERK1/2 phosphorylation assay (AlphaScreen SureFire), A3 W243F-YFP. As for the experimental part: Normal growth medium was replaced with serum-free medium for at least 4 h before analysis. Levels of ERK1/2 phosphorylation were measured using the AlphaScreen SureFire p-ERK assay kit (PerkinElmer). […] Medium was removed from each well and replaced with 40 μL SureFire lysis buffer. After shaking for 5 min, a 1:80:20:120 v v^−1 dilution of AlphaScreen beads : lysate : activation buffer : reaction buffer in a 5.5 μL total volume was transferred to a white opaque 384-well proxiplate in diminished light. After 2 h of incubation in the dark at room temperature, the fluorescence signal was measured with an EnVision plate reader (PerkinElmer) using standard AlphaScreen settings.
as §2

Numbering of substitutions follows the chain as printed. Where two headings read alike, the source gives them in different places.

Turning to `CCNC(=O)[C@H]1O[C@@H](n2cnc3c(N)ncnc32)[C@H](O)[C@@H]1O` [NECA, 5-(N-ethylcarboxamido)adenosine], in experiment [1] (A3-YFP cells), the “Maximal internalization (%)” value is 100%. Moreover, the “agonist-mediated inhibition of SPAP production after PTx pre-incubation” value on A3-YFP was “abolished”; at A3 W243F-YFP [2] (PTx 100 ng·mL−1 overnight, 3 μM FSK), “abolished”. In addition, the “SPAP production in the absence of FSK (Gs coupling)” value on A3-YFP (no FSK, with or without PTx) is given as “no increase in SPAP production”; on A3 W243F-YFP [2] (no FSK, with or without PTx), “no increase in SPAP production”. Moreover, the Emax on A3-YFP is 65.8 ± 8.2%; on A3 W243F-YFP [2] (read-out: Maximum response (% inhibition of 10 μM FSK), CRE-SPAP assay), 34.8 ± 6.7%.
With `CCCCC#Cc1nc(NC)c2ncn([C@@H]3O[C@H](CO)[C@@H](O)[C@H]3O)c2n1` [HEMADO, 2-(1-hexynyl)-N-methyladenosine], the EC50 in experiment [1] (A3-YFP CHO CRE-SPAP cells, 45 min, granule count per cell, read-out: pEC50 (internalization) (converted)) was 245 nM; in experiment [1] (A3-YFP cells, PTx 100 ng·mL−1 overnight, read-out: pEC50 (internalization) in the presence of PTx (converted)) it was 282 nM; on A3 W243F-YFP [3] (A3 W243F-YFP cells, 5 min stimulation, read-out: pEC50 (pERK1/2 assay) (converted)) it was 19.5 nM; at A3-YFP (5 h with FSK, read-out: pEC50 (CRE-SPAP assay) (converted)), 3.02 nM. The “decrease in the maximal levels of internalization in the presence of PTx” value in experiment [1] (A3-YFP cells, PTx pretreatment, reduction vs. 10 μM NECA internalization) was 30 ± 6%. In addition, the “Maximal internalization (%)” value in experiment [1] (A3-YFP cells) was found to be 105.1±11.0%. Besides, the Emax worked out at 16 ± 3.1% at A3 W243F-YFP [3] (read-out: Maximum response (% 10 μM NECA), pERK1/2 assay) and 73.2 ± 7.7% on A3-YFP. The “agonist-mediated inhibition of SPAP production after PTx pre-incubation” value on A3-YFP is recorded as “no HEMADO-mediated response was observed”. The “Maximum response (% inhibition of 10 μM FSK), CRE-SPAP assay” value on A3 W243F-YFP [2] is listed as “No inhibition”. The “maximum inhibition of SPAP production in response to 3 μM FSK” value on A3 W243F-YFP [2] (5 h stimulation, 3 μM FSK) is “no significant decrease”.
